Measured values reported in patent publication US6936637B2, “Prevention of apoptosis in non-cancerous cells” (University of Tennessee Research Foundation, priority 1999, dated 2005).

Tests used:
IEC-6 cells [1] = assay: Floating cell count (detachment-induced cell death, apoptosis); type: cell-based, rat; settings: for number of floating cells compared to control: FIG. 4; for floating cells (percentage of total cell count): camptothecin exposure
Description: IEC-6 cells, having the ATCC designation CRL-1592, were obtained from the American Type Culture Collection at passage 13. The IEC-6 cells are normal, non-cancerous intestinal epithelial cells derived from fetal rat crypt cells. These cells are non-tumorigenic and retain the undifferentiated character of epithelial stem cells. The IEC-6 cell stock was maintained in T-150 flasks in a humidified, 37° C. incubator in an atmosphere of 90:10 air:CO2. The medium used was Dulbecco's modified Eagle medium (DMEM) (Gibco BRL, Grand Island, N.Y.) with 5% heat inactivated fetal bovine serum (FBS) (Sigma, St. Louis, Mo.) and 10 μg insulin and 50 μg gentamicin sulfate per ml. The stock was passaged weekly at 1:10, fed 3 times per week, and passages 15-20 were used. The cells were plated on day 0 at a density of 6.25×10^4 cells/cm^2 in T-150 flasks in DMEM/dFBS (dialyzed fetal bovine serum with 10,000 molecular weight cut-off) (Sigma, St. Louis, Mo.) with or without the treatment compound or compounds described in the Examples that follow. The cells were fed on day 2. On day 3, medium was removed and replaced with serum-free medium. On day 4, camptothecin (Sigma, St. Louis, Mo.) in a DMSO vehicle was added to a concentration of 20 μM into the serum-free medium containing the cells of Example 1 for 3 to 18 hours, with the vehicle (DMSO) added to controls. Detachment-induced cell death (DICD) is a well recognized form of apoptosis in anchorage-dependent cell types, such as intestinal epithelial cells. Floating cells were poured into a 25 ml tube and the monolayer was washed once with HBSS without calcium and magnesium. This wash was then combined into the tube with the floating cells. Attached cells were taken up with 0.05% trypsin plus 0.53 MM EDTA, followed by one wash of the flask with DMEM/5% FBS. Cell counts were determined separately for floating and attached cells by counting on a Model ZF Coulter counter. Floating cells were expressed as a percentage of the total cell count obtained by combining the number of floating and attached cells.

caspase 3 [2] = settings: putrescine up to 5 μM added to cell extracts from DFMO treated cells
CaCo-2 cells [3] = assay: Floating cell count in cancerous cells; type: cell-based, human
Description: Cancerous human intestinal CaCo-2 cells were grown in similar culture media as described in Example 1, except that one group of the cells was grown in a medium not containing DFMO and another group was grown in a medium containing DFMO. After four days of growth, camptothecin at a dose of 20 μM was added to the culture medium of each of the groups. After 6 hours, the number of floating cells in the media of the two groups of cells was determined. The study was repeated using a different inducer of apoptosis, a combination of 20 ng/ml of tumor necrosis factor-α (TNF-α) and 25 μg/ml of cycloheximide.

IEC-6 cells [4] = assay: Nucleosomal DNA fragmentation assay; type: cell-based, rat; settings: camptothecin 20 μM
Description: Cells were collected for determining the presence or absence of DNA fragmentation. After treatment with camptothecin (or vehicle), floating cells were poured off and combined with one DPBS wash of the monolayer. […] The attached cells were collected for DNA fragmentation by scraping in DPBS and combining with one wash of the flask with DPBS. […] The nucleosomal fragmentation assay was carried out by isolating DNA from the cells using the TACS apoptotic DNA laddering kit (Trevigen, Gaithersburg, Md.) and analyzing the labeled DNA by agarose gel electrophoresis following the manufacturer's instructions.

caspase 3 [5] = assay: Caspase 3 activity assay (DEVD-pNA) in cell lysates; type: cell-based, rat; settings: for caspase 3 activity over time, attached cells: camptothecin exposure 0 to 18 hours, control cells or DFMO treated cells
Description: In a separate flask, following camptothecin or DMSO addition, the cells were harvested after 16 hours in order to obtain a sufficient number of floating cells for analysis. Floating cells were then poured off to be counted and were combined with one wash with cold DPBS (Sigma, St. Louis, Mo.). The attached cells were then harvested for determination of caspase activity. 10 ml of DPBS was added to the flask and the monolayer was scraped and collected into a 25 ml tube. The flask was washed once with 10 ml of DPBS and combined into the 25 ml tube. The cells were pelleted by centrifugation at 800× g for 5 minutes. The supernatant was discarded and the pellet was resuspended in 1 ml of cold DPBS and transferred into a microfuge tube. The cells were pelleted by centrifugation at 10,000× g at 4° C. for 10 minutes. The supernatant was discarded and the cells were lysed in 100 ml of ice cold cell lysis buffer (50 mM HEPES, pH 7.4, 0.1% CHAPS, 1 mM DTT, 0.1 mM EDTA, 0.1% NP40) (Sigma, St. Louis, Mo.). The assay for caspase activity was carried out in a 96-well plate. Into each well was placed 20 μl of cell lysate, 70 μl of assay buffer (50 mM HEPES, pH 7.4, 0.1% CHAPS, 100 mM NaCl, 10 mM DTT, 1 mM EDTA ) and 10 μl of caspase 3 calorimetric substrate (2 mM DEVD-pNA prepared in assay buffer, a caspase specific peptide that is conjugated to the chromogen p-nitroanilide) (Biomol Research Laboratories, Plymouth Meeting, Pa.). The 96-well plate was incubated at 37° C. for 2 hours, during which time the caspase in the sample was allowed to cleave the chromophore pNA from the substrate molecule. Absorbance readings at 405 nm were made after the 2 hour incubation, with the caspase activity being directly proportional to the color reaction. Protein was determined for each sample using the BCA method (Pierce, Rockford, Ill.) and a standard curve for p-nitroanilide was carried out. Results for caspase activity were expressed as pmol of pNA released/mg protein/minute.

IEC-6 cells [6] = assay: Intracellular polyamines by HPLC; type: cell-based, rat; settings: for level of putrescine in the cells / level of spermidine in the cells / level of spermine in the cells: cells grown in presence of DFMO or DEGBG
Description: IEC-6 cells were grown for 4 days in the presence or absence of DFMO (Marion Merrel Dow, Cincinnati, Ohio) the highly specific inhibitor of ODC. DFMO treatment depletes putrescine within 3 hours. Depletion of spermidine requires 24 hours and significant depletion (about 50%) of spermine requires 3 days.
Intracellular polyamines were analyzed by high performance liquid chromatography. Cells were plated in 60 mm dishes at 6.25×10^4 cells/cm^2 and grown in DMEM/dFBS with or without DFMO or DEGBG. After washing the monolayer three times with ice-cold DPBS, 0.5 M perchloric acid was added and the samples were then frozen at −80° C. until ready for extraction, dansylation, and HPLC. The standard curve encompassed the range of 0.31-10 μM. Values that fell >25% below the curve were considered not detectable. The level of […] was determined by the Bradford method, as described in Anal. Biochem., 72:248-254 (1976).

caspase 3 [7] = assay: Western blot of caspase 3 levels; type: cell-based, rat; settings: polyamine depleted cells (DFMO)
Description: Total cell protein (50 μg) from cell extracts prepared for caspase 3 assay was separated on 15% SDS-PAGE and transferred to nitrocellulose membranes for western blotting. Equal loading of protein was confirmed by staining the nitrocellulose membrane with Ponceau S (Sigma, St. Louis, Mo.). The membrane was then probed with an antibody directed against caspase 3 (CPP32) (Santa Cruz Biotechnology, Santa Cruz, Calif.). The immunocomplexes were visualized by the enhanced chemiluminescence detection system.

CaCo-2 cells [8] = assay: Examples 1 to 8 repeated in cancerous cells; type: cell-based, human; settings: CaCo-2 cells substituted for IEC-6
Source text: Studies described in Examples 1 to 8 are repeated, except that cancerous human intestinal CaCo-2 cells (ATCC no. HTB37) are substituted for the IEC-6 rat intestinal cell lines.

mast cell tumor = assay: Dog with mast cell tumor treated with Co60 gamma radiation; type: in vivo; settings: DFMO 100 mg/kg/day orally for four days, adult dog
Description: DFMO at a dosage of 100 mg/kg/day is administered orally for four days to an adult dog suffering from a mast cell tumor on one of its rear legs. The tumor is treated in multiple sessions by exposure to Co^60 gamma radiation as indicated for this type of tumor. The field of exposure to the radiation exceeds the boundaries of the tumor.

[9] = 0 time, control cells or DFMO treated cells
[10] = 18 hours, control cells or DFMO treated cells
[11] = cells grown 4 days with DFMO, 6 hours after camptothecin

**Q.** For NCCCCN [putrescine], which “number of floating cells compared to control” value (IEC-6 cells [1]; exogenous 10 μM putrescine along with DFMO) is on record?
**A.** The value was “restored the number of floating cells to control levels”.

**Q.** And the “effect on caspase activity” value (caspase 3 [2])?
**A.** Its value is “did not reveal any effect”.

**Q.** Which “number of floating cells” value (CaCo-2 cells [3]; no DFMO, camptothecin 20 μM, 6 hours) does the source give for CC[C@@]1(O)C(=O)OCc2c1cc1n(c2=O)Cc2cc3ccccc3nc2-1 [camptothecin] here?
**A.** Its value is 2.7 +/− .06.

**Q.** What about the “DNA fragmentation, attached cells” value (IEC-6 cells [4]; attached cells) of the same compound?
**A.** The value was “did not show remarkable DNA fragmentation”.

**Q.** What about the “DNA fragmentation, detached cells” value (IEC-6 cells [4]; detached (floating) cells) of the same compound?
**A.** The value was “showed characteristic nucleosomal DNA fragments”.

**Q.** And the “increase in the number of floating cells compared to DMSO control group” value (IEC-6 cells [1]; camptothecin 20 μM, within 6 hours)?
**A.** Its value is 8 fold.

**Q.** And the “floating cells (percentage of total cell count)” value (IEC-6 cells [1]; [9])?
**A.** The value was 6.2%.

**Q.** What about the “floating cells (percentage of total cell count)” value (IEC-6 cells [1]; [10]) of the same compound?
**A.** The value was 49.3%.

**Q.** And the “onset of camptothecin induced apoptosis (number of floating cells)” value (IEC-6 cells [1]; control cells (no DFMO))?
**A.** Its value is ≤ 3 h.

**Q.** And the “caspase 3 activity, detached cells” value (caspase 3 [5]; camptothecin 20 μM, detached (floating) cells)?
**A.** The value was “increased caspase 3 activity”.

**Q.** And the “increase in caspase 3 activity, attached cells” value (caspase 3 [5]; camptothecin 20 μM, harvested after 16 hours, attached cells)?
**A.** The value was 7 fold.

**Q.** And the “caspase 3 activity over time, attached cells” value (caspase 3 [5])?
**A.** The value was “increased progressively with time”.

**Q.** Which “percentage of floating cells” value (IEC-6 cells [1]; day 1 of treatment) does the source give for CCC(=NNC(=N)N)C(CC)=NNC(=N)N [DEGBG, diethylglyoxal bis-(guanylhydrazone)] here?
**A.** Its value is 26.6%.

**Q.** What about the “percentage of floating cells” value (IEC-6 cells [1]; day 2 of treatment) of the same compound?
**A.** Its value is 26.9%.

**Q.** What about the “percentage of floating cells” value (IEC-6 cells [1]; day 4 of treatment) of the same compound?
**A.** The value was 23.3%.

**Q.** What about the “level of putrescine in the cells” value (IEC-6 cells [6]) of the same compound?
**A.** Its value is “significantly increased”.

**Q.** And the “level of spermidine in the cells” value (IEC-6 cells [6])?
**A.** Its value is “decreasing”.

**Q.** And the “level of spermine in the cells” value (IEC-6 cells [6])?
**A.** The value was “decreasing”.

**Q.** Which “protection of cancerous cells from apoptosis” value (CaCo-2 cells [3]; apoptosis induced by camptothecin or TNF-α + cycloheximide) does the source give for NCCCC(N)(C(=O)O)C(F)F (racemic) [DFMO, DL-œ-difluoromethylornithine] here?
**A.** Its value is “did not protect the cancerous cells from apoptosis”.

**Q.** What about the “number of floating cells” value (CaCo-2 cells [3]; with DFMO 4 days, 20 ng/ml TNF-α and 25 μg/ml cycloheximide) of the same compound?
**A.** The value was 6.2 +/− .6.

**Q.** What about the “number of floating cells” value (CaCo-2 cells [3]; with DFMO 4 days, camptothecin 20 μM, 6 hours) of the same compound?
**A.** Its value is 3.7 +/− .24.

**Q.** And the “number of floating cells” value (CaCo-2 cells [3]; with DFMO 4 days, no TNF-α + cycloheximide)?
**A.** Its value is 4.8 +/− .5.

**Q.** And the “number of floating cells” value (CaCo-2 cells [3]; with DFMO 4 days, no camptothecin)?
**A.** The value was 3.1 +/− .06.

**Q.** What about the “number of floating cells compared to control” value (IEC-6 cells [1]; DFMO alone) of the same compound?
**A.** The value was “decreased the number of floating cells”.

**Q.** And the “delay of onset of apoptosis” value (IEC-6 cells [1]; DFMO treated cells exposed to camptothecin)?
**A.** Its value is “up to 12 hours”.

**Q.** And the “floating cells (percentage of total cell count)” value (IEC-6 cells [1]; [9])?
**A.** The value was 2.2%.

**Q.** What about the “floating cells (percentage of total cell count)” value (IEC-6 cells [1]; 12 hours, DFMO treated cells) of the same compound?
**A.** The value was 9.3%.

**Q.** And the “floating cells (percentage of total cell count)” value (IEC-6 cells [1]; [10])?
**A.** The value was 29.1%.

**Q.** And the “decrease in the number of floating cells compared to control cells treated with camptothecin” value (IEC-6 cells [1]; [11])?
**A.** The value was ~3 fold.

**Q.** And the protection against apoptosis (IEC-6 cells [1]; cells grown 4 days with DFMO, DMSO (vehicle) or camptothecin, 6 hours)?
**A.** The protection against apoptosis was “protected against both DMSO (vehicle) and camptothecin-induced apoptosis”.

**Q.** And the “percentage of floating cells” value (IEC-6 cells [1]; day 1 of treatment)?
**A.** The value was 19.2%.

**Q.** What about the “percentage of floating cells” value (IEC-6 cells [1]; day 2 of treatment) of the same compound?
**A.** The value was 12.4%.

**Q.** What about the “percentage of floating cells” value (IEC-6 cells [1]; day 4 of treatment) of the same compound?
**A.** The value was 2.2%.

**Q.** What about the “level of caspase 3 (Western blot) compared with controls” value (caspase 3 [7]) of the same compound?
**A.** Its value is “not significantly different”.

**Q.** And the “exposure to camptothecin after which significant increase in caspase 3 activity was observed” value (caspase 3 [5]; DFMO treated cells)?
**A.** Its value is 18 h.

**Q.** And the “caspase 3 activity over time, attached cells” value (caspase 3 [5])?
**A.** Its value is “did not show remarkable increases in caspase 3 activity for up to 12 hours”.

**Q.** And the “lower caspase 3 activity compared to control” value (caspase 3 [5]; [11])?
**A.** Its value is “approximately 50%”.

**Q.** And the “time required for depletion of spermidine” value (IEC-6 cells [6]; DFMO treatment of IEC-6 cells)?
**A.** Its value is 24 h.

**Q.** And the “time required for significant depletion of spermine” value (IEC-6 cells [6]; DFMO treatment of IEC-6 cells)?
**A.** Its value is 3 days.

**Q.** What about the “time to depletion of putrescine” value (IEC-6 cells [6]; DFMO treatment of IEC-6 cells) of the same compound?
**A.** Its value is ≤ 3 h.

**Q.** What about the depletion of spermine (IEC-6 cells [6]; DFMO treatment, 3 days) of the same compound?
**A.** Its depletion of spermine is “about 50%”.

**Q.** What about the “level of putrescine in the cells” value (IEC-6 cells [6]) of the same compound?
**A.** Its value is “decreases”.

**Q.** And the “level of spermidine in the cells” value (IEC-6 cells [6])?
**A.** The value was “decreases”.

**Q.** And the “level of spermine in the cells” value (IEC-6 cells [6])?
**A.** The value was “decreases”.

**Q.** What about the inhibition of apoptosis (CaCo-2 cells [8]) of the same compound?
**A.** The inhibition of apoptosis was “No inhibition of apoptosis is observed”.

**Q.** And the “death of surrounding normal tissues” value (mast cell tumor)?
**A.** The value was “visually noticeable decrease in death of the surrounding normal tissues”.

**Q.** And the effect on tumor (mast cell tumor)?
**A.** Its effect on tumor is “the tumor is killed”.
